What all share (experiment): […]PPi release adenylation assay
Holding throughout (format): biochemical

In test [1] the target is T1, Cal22Thr (Streptomyces calvus, UniProt A0A0N9LS39).
T1 construct: gene cal22; complete ORF, A-PCP didomain, N-terminal His6 tag; E. coli BL21(DE3) ΔybdZ, coexpressed with untagged Cal4 (Cal4 not copurified)
The settings on record: co-substrate threonine 0.2 mM; 0.15 mM ATP, 1 mM MgCl2, 25 °C, 3 h; labelled compound.

Test [2] addresses T2, Cal23Asn/Cal4 complex (Streptomyces calvus, UniProt A0A0N9M336).
T2 construct: gene cal23; complete ORF, A-PCP didomain, N-terminal His6 tag; copurified with untagged MbtH-like protein Cal4; E. coli BL21(DE3) ΔybdZ; with MbtH-like protein
The following applies: co-substrate asparagine 0.2 mM; 0.15 mM ATP, 1 mM MgCl2, 25 °C, 3 h; labelled compound.

Test [3] deals with T2, Cal23Asn/Cal4 complex. The following applies: 0.2 mM amino acid, 0.15 mM ATP, 1 mM MgCl2, 25 °C, 3 h, 30 μM enzyme; most active of 20 proteinogenic amino acids.
The target in test [4] is T1, Cal22Thr. The settings on record: 0.2 mM amino acid, 0.15 mM ATP, 1 mM MgCl2, 25 °C, 3 h, 30 μM enzyme; most active of 20 proteinogenic amino acids.

Molecules are shown by their SMILES.

T1 sequence (A0A0N9LS39 entry or part of it): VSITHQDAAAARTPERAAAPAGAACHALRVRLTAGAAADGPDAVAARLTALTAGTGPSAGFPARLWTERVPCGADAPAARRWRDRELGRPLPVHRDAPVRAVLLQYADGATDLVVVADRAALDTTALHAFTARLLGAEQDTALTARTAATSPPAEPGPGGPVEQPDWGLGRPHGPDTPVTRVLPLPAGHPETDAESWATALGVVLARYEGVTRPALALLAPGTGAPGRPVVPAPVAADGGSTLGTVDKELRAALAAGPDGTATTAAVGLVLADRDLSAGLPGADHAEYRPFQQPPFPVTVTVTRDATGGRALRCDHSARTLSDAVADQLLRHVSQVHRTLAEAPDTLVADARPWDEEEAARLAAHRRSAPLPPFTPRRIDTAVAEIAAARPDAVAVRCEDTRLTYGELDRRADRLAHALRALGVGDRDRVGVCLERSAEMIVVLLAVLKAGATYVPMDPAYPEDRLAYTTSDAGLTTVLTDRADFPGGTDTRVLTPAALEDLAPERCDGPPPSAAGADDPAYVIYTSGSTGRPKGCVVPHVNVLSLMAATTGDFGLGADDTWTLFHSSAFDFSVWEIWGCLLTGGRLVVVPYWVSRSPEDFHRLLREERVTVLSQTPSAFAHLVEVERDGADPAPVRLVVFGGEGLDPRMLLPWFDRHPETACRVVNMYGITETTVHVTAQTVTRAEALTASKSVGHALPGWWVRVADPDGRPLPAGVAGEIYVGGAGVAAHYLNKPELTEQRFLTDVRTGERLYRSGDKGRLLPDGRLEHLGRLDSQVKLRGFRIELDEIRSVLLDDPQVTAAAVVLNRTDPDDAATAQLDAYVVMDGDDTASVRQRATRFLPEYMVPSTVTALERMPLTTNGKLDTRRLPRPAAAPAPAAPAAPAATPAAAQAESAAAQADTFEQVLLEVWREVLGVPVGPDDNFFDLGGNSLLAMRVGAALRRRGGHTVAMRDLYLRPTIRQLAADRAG
T2 sequence (A0A0N9M336 entry or part of it): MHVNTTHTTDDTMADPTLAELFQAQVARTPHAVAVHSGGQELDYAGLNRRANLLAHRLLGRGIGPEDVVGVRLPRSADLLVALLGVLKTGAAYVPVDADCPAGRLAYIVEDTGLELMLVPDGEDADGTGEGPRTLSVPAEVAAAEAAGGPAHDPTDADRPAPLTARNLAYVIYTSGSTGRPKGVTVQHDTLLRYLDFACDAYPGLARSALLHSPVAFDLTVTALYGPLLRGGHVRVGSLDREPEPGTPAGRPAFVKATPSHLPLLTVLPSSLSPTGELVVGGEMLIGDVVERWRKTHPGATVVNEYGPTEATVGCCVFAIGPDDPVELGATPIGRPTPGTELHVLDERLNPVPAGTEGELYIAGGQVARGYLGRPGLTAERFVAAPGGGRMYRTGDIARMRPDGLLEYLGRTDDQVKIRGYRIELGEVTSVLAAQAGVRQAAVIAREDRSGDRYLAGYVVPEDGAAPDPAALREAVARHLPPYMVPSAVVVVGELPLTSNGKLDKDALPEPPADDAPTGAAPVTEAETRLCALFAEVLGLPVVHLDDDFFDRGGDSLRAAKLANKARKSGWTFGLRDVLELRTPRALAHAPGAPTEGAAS
T2 sequence (A0A0N9M601 entry or part of it, further chain): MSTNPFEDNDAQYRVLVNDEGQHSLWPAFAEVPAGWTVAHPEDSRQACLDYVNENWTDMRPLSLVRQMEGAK

Take `Nc1ncnc2c1ncn2[C@@H]1O[C@H](COP(=O)(O)OP(=O)(O)OP(=O)(O)O)[C@@H](O)[C@H]1O` [ATP]: the “[33P]PPi release adenylation assay” value on Cal22Thr [1] and on Cal23Asn/Cal4 complex [2] was “the reaction of ATP with an amino acid to form an amino acyl adenylate was measured” throughout. Consider `NC(=O)C[C@H](N)C(=O)O` [asparagine], for which the relative adenylation activity result on Cal23Asn/Cal4 complex [3] is “Cal23Asn/Cal4 complex was most active towards asparagine, the predicted substrate of the A‐domain”. Take `C[C@@H](O)[C@H](N)C(=O)O` [threonine]: at Cal22Thr [4], the relative adenylation activity result was “Cal22Thr was observed to be most specific towards its predicted substrate threonine”.

Source of the values: paper PMC7539972, “Role of Two Exceptional trans Adenylation Domains and MbtH‐like Proteins in the Biosynthesis of the Nonribosomal Peptide WS9324A from Streptomyces calvus ATCC 13382” (Chembiochem, 2020).
